Source: patent US20150284399A1, “PROCESSES FOR THE PREPARATION OF S1P1 RECEPTOR MODULATORS AND CRYSTALLINE FORMS THEREOF” (Arena Pharmaceuticals, Inc., priority 2010, published 2015)
Where two headings read alike, the source gives them in different places.

Key:
[1] = Dynamic moisture sorption (DMS); type: physicochemical; settings: crystalline form
Description: Samples are prepared for dynamic moisture-sorption analysis by placing ˜5 mg to ˜20 mg of compound in a tarred sample holder on the VTI balance. The instrument is a dynamic moisture-sorption analyzer, VTI Corporation, SGA-100. A drying step is run at 40° C. and ˜1% RH for 1 h. The isotherm temperature is 25° C. A % weight change over 10 min (5 weight readings) of dm/dt=0.010 or 2 h, whichever occurs first, is required before continuing to the next step. The water content of the sample equilibrated as described above was determined from 30% RH to 90% RH and then back down to 10% RH.

[2] = test system: rat cardiac allograft model; settings: cited from earlier work
[3] = test system: keratinocytes; settings: Kim et al. 2004; cited from earlier work
[4] = organ transplantation; cited from earlier work
[5] = attributed to agonism of the S1P3 receptor; cited from earlier work
[6] = unlike cyclosporin A, FK506 and RAD; cited from earlier work
[7] = test system: human islet cells; settings: cited from earlier work
[8] = test system: rat model for autoimmune myocarditis; settings: cited from earlier work
[9] = test system: rat skin allograft model; settings: monotherapy; cited from earlier work
[10] = test system: rat renal allograft model; settings: combination with mycophenolate mofetil (MMF); cited from earlier work
[11] = test system: type I diabetic vascular endothelium; settings: Whetzel et al. 2006; cited from earlier work
[12] = test system: vasculature; settings: Bolick et al. 2005; cited from earlier work
[13] = molecular target: T1, S1P4 receptor (Homo sapiens, UniProt O95977); settings: Chiba 2005; cited from earlier work
T1 sequence (O95977 1-384): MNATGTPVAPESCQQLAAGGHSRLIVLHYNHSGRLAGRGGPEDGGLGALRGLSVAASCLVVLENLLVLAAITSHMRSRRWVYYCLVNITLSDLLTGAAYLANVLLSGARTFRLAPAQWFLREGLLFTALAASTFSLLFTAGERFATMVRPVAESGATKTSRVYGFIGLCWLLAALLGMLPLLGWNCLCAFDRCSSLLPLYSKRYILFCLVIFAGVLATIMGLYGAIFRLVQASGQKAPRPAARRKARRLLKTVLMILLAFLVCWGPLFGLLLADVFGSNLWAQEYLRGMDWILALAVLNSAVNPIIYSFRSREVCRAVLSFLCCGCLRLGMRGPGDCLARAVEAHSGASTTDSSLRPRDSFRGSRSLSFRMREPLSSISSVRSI

[14] = molecular target: S1P5 receptor (Homo sapiens, UniProt Q9H228); settings: Chiba 2005; cited from earlier work
Sequence of S1P5 receptor (Q9H228 whole entry): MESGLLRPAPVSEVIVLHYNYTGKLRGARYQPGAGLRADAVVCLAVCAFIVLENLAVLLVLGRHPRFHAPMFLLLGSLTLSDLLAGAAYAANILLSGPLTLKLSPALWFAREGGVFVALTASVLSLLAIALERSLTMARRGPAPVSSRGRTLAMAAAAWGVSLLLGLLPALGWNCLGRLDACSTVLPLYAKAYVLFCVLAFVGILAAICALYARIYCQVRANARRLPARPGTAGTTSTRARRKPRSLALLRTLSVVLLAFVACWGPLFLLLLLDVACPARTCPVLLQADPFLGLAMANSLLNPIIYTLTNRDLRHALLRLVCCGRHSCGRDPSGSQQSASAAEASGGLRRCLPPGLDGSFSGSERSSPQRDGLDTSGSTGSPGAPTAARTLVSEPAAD

[15] = molecular target: S1P2 receptor (Homo sapiens, UniProt O95136); settings: Chiba 2005; cited from earlier work
Sequence of S1P2 receptor (O95136 whole entry): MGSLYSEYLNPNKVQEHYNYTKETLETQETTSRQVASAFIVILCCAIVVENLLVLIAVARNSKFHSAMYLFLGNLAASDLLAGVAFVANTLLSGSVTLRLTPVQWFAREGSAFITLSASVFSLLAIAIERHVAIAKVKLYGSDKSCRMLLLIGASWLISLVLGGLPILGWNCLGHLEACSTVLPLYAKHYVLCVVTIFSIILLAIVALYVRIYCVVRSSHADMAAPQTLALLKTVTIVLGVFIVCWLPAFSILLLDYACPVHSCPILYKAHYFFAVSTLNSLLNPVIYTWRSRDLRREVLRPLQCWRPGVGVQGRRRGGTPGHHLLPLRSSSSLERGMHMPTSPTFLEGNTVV

[16] = test system: Male BALB/c mice; assay: Mouse Peripheral Lymphocyte Lowering (PLL) assay; type: in vivo; settings: 0.300 mg/kg oral dose in 0.5% methyl cellulose in water; 5 hours post-dose; vs vehicle; FIG. 15
Description: Male BALB/c mice (Charles River Laboratories, Wilmington, Mass.) were housed four per cage and maintained in a humidity-controlled (40 to 60%) and temperature-controlled (68 to 72° F.) facility on a 12 h: 12 h light/dark cycle (lights on at 6:30 am) with free access to food (Harlan Teklad, Orange, Calif., Rodent Diet 8604) and water. Mice were allowed (approximately) one week of habituation to the animal facility before testing.
Mice were given a 0.300 mg/kg oral dose of (R)-2-(9-chloro-7-(4-isopropoxy-3-(trifluoromethyl)benzyloxy)-2,3-dihydro-1H-pyrrolo[1,2-a]indol-1-yl)acetic acid L-lysine salt or dosing vehicle (0.5% methyl cellulose in water) in a total volume of 10 mL/kg. Peripheral blood samples were collected at 5 hours post-dose. The mice were anesthetized with isoflurane and blood was collected via cardiac puncture. A complete cell count (CBC), including lymphocyte count, was obtained using a CELL-DYN® 3700 (Abbott Laboratories, Abbott Park, Ill.) instrument. Results are presented in FIG. 15, in which peripheral blood lymphocyte (PBL) count is shown for the 5 hour group.

[17] = test system: Female C57BL/6 mice; assay: MOG-induced experimental autoimmune encephalomyelitis (EAE) in mice; type: in vivo, mouse; settings: oral, once a day from day 3 until day 21; 0.1, 0.3 and 1.0 mg/kg; vs vehicle; FIG. 17

CC(C)Oc1ccc(COc2ccc3c(c2)c(Cl)c2n3CC[C@@H]2CC(=O)O)cc1C(F)(F)F.NCCN.O [(R)-2-(9-chloro-7-(4-isopropoxy-3-(trifluoromethyl)benzyloxy)-2,3-dihydro-1H-pyrrolo[1,2-a]indol-1-yl)acetic acid ethylenediamine salt hydrate]
DMS weight gain after adsorption cycle to about 90% RH followed by desorption cycle back to about 10% RH [1]: 25° C.; gains less than about 1.5% weight after undergoing

CC(C)Oc1ccc(COc2ccc3c(c2)c(Cl)c2n3CC[C@@H]2CC(=O)[O-])cc1C(F)(F)F.O.[Na+] [(R)-2-(9-chloro-7-(4-isopropoxy-3-(trifluoromethyl)benzyloxy)-2,3-dihydro-1H-pyrrolo[1,2-a]indol-1-yl)acetic acid sodium salt hydrate]
DMS weight gain at about 90% relative humidity ([1]; from about 30% RH to about 90% RH at 25° C.): FIG. 9: gains about 2.5% weight at about 90% relative humidity

O=C(O)CCNCc1ccc2sc(-c3ccc(-c4ccccc4)c(C(F)(F)F)c3)cc2c1 [AUY954]
prolonging allograft survival ([2]; combination with a subtherapeutic dose of RAD001): can prolong rat cardiac allograft survival

CCCCCCCCCCCCC/C=C/[C@@H](O)[C@@H](N)COP(=O)(O)O [Compound S1P, sphingosine-1-phosphate]
keratinocyte proliferation [3]: inhibits keratinocyte proliferation

C=CC[C@@H]1/C=C(\C)C[C@H](C)C[C@H](OC)[C@H]2O[C@@](O)(C(=O)C(=O)N3CCCC[C@H]3C(=O)O[C@H](/C(C)=C/[C@@H]3CC[C@@H](O)[C@H](OC)C3)[C@H](C)[C@@H](O)CC1=O)[C@H](C)C[C@@H]2OC [FK506]
undesirable side effects [4]: nephrotoxicity, neurotoxicity, β-cell toxicity and gastrointestinal discomfort

CCCCCCCCc1ccc(CCC(N)(CO)CO)cc1 [FTY720, fingolimod]
adverse event in clinical trials [5]: transient asymptomatic bradycardia | general immunosuppression while prolonging graft survival [6]: without inducing general immunosuppression | effects on human islet function [7]: no detrimental effects on human islet function

NC(CO)(CO)CCc1ccc(Sc2cccc(OCc3ccccc3)c2)cc1Cl [KRP-203]
therapeutic efficacy [8]: therapeutic efficacy | prolonging allograft survival ([2]; combination with cyclosporin A): synergistic combination with cyclosporin A | prolonging allograft survival ([2]; combination with mycophenolate mofetil (MMF)): therapeutic efficacy in combination with mycophenolate mofetil | prolonging allograft survival ([2]; monotherapy): therapeutic efficacy for prolonging allograft survival | prolonging allograft survival [9]: therapeutic efficacy for prolonging allograft survival | prolonging allograft survival [10]: therapeutic efficacy in combination with mycophenolate mofetil

FC(F)(F)c1cccc(-c2noc(-c3cc(-c4ccccc4)c(C(F)(F)F)s3)n2)c1 [SEW2871]
proinflammatory monocyte/endothelial interactions [11]: prevents proinflammatory monocyte/endothelial interactions | protection against TNFα-mediated monocyte/endothelial interactions [12]: protects the vasculature against TNFα-mediated monocyte/endothelial interactions

CCCCCCCCc1ccc(CCC(N)(CO)COP(=O)(O)O)cc1 (centres unmarked) [phosphorylated derivative]
agonist activity on S1P4 receptor [13]: agonist | agonist activity on S1P5 receptor [14]: agonist | agonist activity on S1P2 receptor [15]: not the S1P2 receptor

(R)-2-(9-Chloro-7-(4-isopropoxy-3-(trifluoromethyl)benzyloxy)-2,3-dihydro-1H-pyrrolo[1,2-a]indol-1-yl)acetic acid L-lysine salt
peripheral blood lymphocyte (PBL) lowering (lymphopenia) [16]: exhibited activity for inducing PBL lowering (lymphopenia) | reduction of the severity of disease symptoms (clinical score) in EAE [17]: exhibits therapeutic efficacy in EAE | DMS weight gain at a 90% RH hold ([1]; 90% RH hold at 25° C.): FIG. 6: gains less than about 2.2% weight at a 90% RH hold at | DMS weight gain after adsorption cycle to about 90% RH followed by desorption cycle back to about 10% RH [1]: 25° C.; gains less than about 0.25% weight after undergoing a
